The text below walks through data of patent US7763594B2, “Compositions for the treatment of osteoarthritis and to nourish the synovial fluid” (Bioiberica, S.A., priority 2005, dated 2010).

The test system of assay [1] is metalloprotease activity (MMP-1-2-3-12-13). Nature of the assay: Inhibition of metalloprotease activity in IL-1β-stimulated human arthrosic chondrocytes (FRET substrate). The format is cell-based. As to conditions: 24 hours preincubation, then 100 U/ml IL-1β for 24 hours; significance p<0.05. The procedure:
Solutions were prepared with the two compositions of the invention. One of them contained 160 μg/ml of hyaluronic acid and 40 μg/ml of dermatan sulphate, and was compared to hyaluronic acid at a concentration of 160 μg/ml and to dermatan sulphate at a concentration of 40 μg/ml. The other composition contained 800 μg/ml of hyaluronic acid and 200 μg/ml of dermatan sulphate and was compared to hyaluronic acid at a concentration of 800 μg/ml and to dermatan sulphate at a concentration of 200 μg/ml. The chondrocytes were isolated from cartilage pieces (from knee or hip) from […] advanced osteoarthritis, by sequential enzymatic digestion: 1 hour with hyaluronidase (0.1 mg/ml), followed by 10 hours with collagenase (type IA, 2 mg/ml) at 37° C. in DMEM/Ham's F12 medium plus penicillin (100 U/ml) and streptomycin (100 μg/ml) in a controlled CO2 atmosphere. […] Cell viability was determined by the Trypan blue exclusion method, which was in excess of 95%. […] Subsequently, supernatants were transferred to a 96-well plaque for fluorescence analysis and the FRET substrate (QXLTM 520) was added for MMP-1-2-3-12-13. The plaque was shaked and fluorescence measured a different times with excitation and emission wavelengths set at 490 nm and 520 nm, respectively. […] Means and standard errors were calculated, and an analysis of variance and Dunnett's t-test were performed. […]

Assay [2] deals with human osteoarthritic synoviocytes. Nature of the assay: Production of endogenous hyaluronic acid by human synoviocytes (ELISA of culture supernatant). Format: cell-based. The procedure: The composition of the invention, the HA extraction and the HA fermentation were separately incubated with synoviocytes for 12 and 24-hour periods. The following concentrations were used, both of the composition of the invention and of the hyaluronic acids: 10 μg/ml, 100 μg/ml and 200 μg/ml.
Synovial tissues were obtained from three osteoarthritic joints.
Synovial tissue was introduced into a sterile vial with DMEM (Dulbecco's Modification of Eagle's Medium) (2%), penicillin (150 U/ml), streptomycin ([…]) and amphotericin B (2 μg/ml), and then placed in a refrigerator (temperature: 0-4° C.) for transferral to the cell culture area. The synovial tissue was diced into fragments approximately sized to 2×2×2 mm^3. The fragments were washed three times in culture medium (RPMI 2% P/S/A). 20 ml of culture medium with 10% trypsin was added, and then incubated in a water bath at 37° C. for 10-15 minutes. Subsequently, the synovium was digested with 25 ml of collagenase solution [2 mg/ml type II collagenase; 5% fetal calf serum (FCS); 2% P/S/A; 1% L-glutamine; and deoxyribonuclease I 0.1 mg/ml or 150 U/l in RPMI]. The vial was introduced into a rotary shaker at 37° C. for approximately 2-4 hours. The cells were strained through a nylon filter with 25 μm diameter pores. A cell count was conducted and the cells were grown to a density of 5,000 to 10,000 cell/cm^2 in culture bottles of 25 or 75 cm^2 surface. The culture medium used was RPM supplemented with 10% FCS, 1% P/S and 1% L-glutamine. The synoviocytes used in the experiments were all from passages 2-3.
Following a 24-hour period culture, the synoviocytes (100,000 cells per well in a 24-well plate with 250 μl of medium) were stimulated using the composition of the invention, the HA extraction and the HA fermentation for 12 and 24-hour periods. Then, the supernatant of the different wells was harvested. The endogenous hyaluronic acid content was measured using an ELISA (Corgenix Inc. USA).
Results are shown as the average of 9 individual experiments performed on the cultures. Results are expressed as averages±S.D. and S.E. The statistical analysis was done using a two-tailed unpaired Student's T-test. A statistical difference is considered significant when p<0.05.
Background: ELISA stands for enzyme-linked immunosorbent assay.

Consider dermatan sulphate, for which, in assay [1], the “reduction of metalloprotease activity (in words)” value is recorded as “reduction of metalloprotease activity, albeit not at a statistically significant level”.
hyaluronic acid [HA extraction]: the “level of endogenous hyaluronic acid in supernatant” value in assay [2] (12-hour period, 100 μg/ml) is on record as 25,762 ng/ml; in assay [2] (24-hour period, 100 μg/ml) it was 27,634 ng/ml; in assay [2] (24-hour period, 200 μg/ml) it was 91,538 ng/ml.
For hyaluronic acid [hyaluronic acid (HA)], the “reduction of metalloprotease activity (in words)” value in assay [1] is given as “reduction of metalloprotease activity, albeit not at a statistically significant level”.
On to sodium hyaluronate [HA fermentation], for which the “level of endogenous hyaluronic acid in supernatant” value in assay [2] (12-hour period, 100 μg/ml) is 9,724 ng/ml; in assay [2] (12-hour period, 200 μg/ml), 62,618 ng/ml; in assay [2] (24-hour period, 100 μg/ml) it was 15,706 ng/ml; in assay [2] (24-hour period, 200 μg/ml) it was 72,594 ng/ml.
